Data from US20110178396A1, “Nicotinamide Derivatives” (CRC FOR BIOMEDICAL IMAGING DEVELOPMENT LTD., priority 2008, published 2011).
Each block holds one molecule with its values, some of them ahead of it.

Test system: B16F0 melanoma tumour
Assay: Biodistribution in B16 melanoma bearing mice
Format: in vivo, C57BL/6J mice
Details: B16 melanoma bearing mice
Method: Animal experiments were performed in compliance with the NHMRC Australian Code of Practice for the care and use of animals for scientific purposes. Female C57BL/6J black and BALB/c nude albino mice of 5 weeks age were obtained from the Animal Resources Centre, Western Australia. B16F0 murine melanoma cells were originally obtained from European Collection of Cell Cultures (UK) and A375 human amelanotic melanoma cells were originally obtained from American Type Culture Collection (USA). Before transplantation, B16F0 and A375 melanoma cells were maintained as a monolayer in RPMI culture medium supplemented with 10% foetal calf serum and antibiotics and passaged with trypsinisation. Early passages were frozen and stored in liquid nitrogen. Cells were passaged to P=10 and then discarded. Frozen aliquots were grown in a monolayer culture to between 80-95% confluence and for transplantation were trypsinised and washed with Ca^2+ and Mg^2+ free phosphate buffered saline (PBS). For inoculation, B16F0 melanoma cells were resuspended in Ca^2+ and Mg^2+ free PBS at 3 or 5×10^6 viable cells per ml and 0.1 ml was subcutaneously injected at the left flank of 6-7 weeks old C57BL/6J mice. Eleven days later, tumours could be palpated in >98% of inoculated animals. A375 human melanoma cells were resuspended at 1×10^7 viablecells per ml and 0.1 ml was injected subcutaneously at the left flank of 6 weeks old BALB/c nude mice and 25-26 days later tumours could be palpated with ˜60% of inoculated animals developing tumours.
Eleven days (B16F0 melanoma) and 25 days (A375 human melanoma) after tumour transplantation, the [^18F]nicotinamides (0.5-1.5 MBq, 100 μl) and [^123I]nicotinamide (0.37-0.74 MBq, 100 μl) derivatives were injected intravenously via the tail vein into mice (15-18 g). Time points of 1, 3, 6, 24, 48, 72 h after injection were chosen for determining the distribution of each compound in various organs and tissues for the iodine-123 labelled compounds and between 15 min and 6 hours (e.g. 15 min, 30 min, 1 h, 2 h, 4 h or 6 h) were chosen for the ^18F-labelled compounds. At defined times post injection, groups of mice (n=5) were weighed, sacrificed by CO2 administration followed by cervical dislocation and dissected. Selected organs were weighed and their radioactivity measured with a γ-counter. The remaining activity in the carcass was also determined in order to obtain the total activity in the mouse at defined time points. The fraction of injected activity (% ID) in the organ was calculated by comparison with suitable dilutions of the injected dose. Then, the radioactivity concentration in the organ (% ID/g) was found by dividing the % ID for each organ by the weight of the organ.

uptake BLOOD (15 min): 0.68 % ID/g
uptake BONE (15 min): 3.89 % ID/g
uptake BRAIN (15 min): 0.84 % ID/g
uptake EYES (15 min): 11.27 % ID/g
uptake GIT (15 min): 8.23 % ID/g
uptake HEART (15 min): 2.49 % ID/g
uptake KIDNEY (15 min): 15.88 % ID/g
uptake LIVER (15 min): 30.69 % ID/g
uptake LUNGS (15 min): 12.06 % ID/g
uptake MUSCLE (15 min): 2.83 % ID/g
uptake SKIN (15 min): 2.53 % ID/g
uptake SPLEEN (15 min): 11.19 % ID/g
uptake STOMACH (15 min): 8.52 % ID/g
uptake THYROID (15 min): 10.16 % ID/g
uptake TUMOUR (15 min): 4.01 % ID/g
uptake BLOOD (1 h): 0.32 % ID/g
uptake BONE (1 h): 2.03 % ID/g
uptake BRAIN (1 h): 0.75 % ID/g
uptake EYES (1 h): 12.65 % ID/g
uptake GIT (1 h): 5.78 % ID/g
uptake HEART (1 h): 0.98 % ID/g
uptake KIDNEY (1 h): 4.64 % ID/g
uptake LIVER (1 h): 36.76 % ID/g
uptake LUNGS (1 h): 4.49 % ID/g
uptake MUSCLE (1 h): 1.00 % ID/g
uptake SKIN (1 h): 1.61 % ID/g
uptake SPLEEN (1 h): 7.38 % ID/g
uptake STOMACH (1 h): 3.31 % ID/g
uptake THYROID (1 h): 5.37 % ID/g
uptake TUMOUR (1 h): 4.79 % ID/g
uptake BLOOD (3 h): 0.21 % ID/g
uptake BONE (3 h): 1.41 % ID/g
uptake BRAIN (3 h): 0.57 % ID/g
uptake EYES (3 h): 14.28 % ID/g
uptake GIT (3 h): 4.18 % ID/g
uptake HEART (3 h): 0.71 % ID/g
uptake KIDNEY (3 h): 2.89 % ID/g
uptake LIVER (3 h): 32.81 % ID/g
uptake LUNGS (3 h): 3.08 % ID/g
uptake MUSCLE (3 h): 0.53 % ID/g
uptake SKIN (3 h): 1.09 % ID/g
uptake SPLEEN (3 h): 5.31 % ID/g
uptake STOMACH (3 h): 2.36 % ID/g
uptake THYROID (3 h): 2.92 % ID/g
uptake TUMOUR (3 h): 5.31 % ID/g
uptake BLOOD (6 h): 0.14 % ID/g
uptake BONE (6 h): 1.03 % ID/g
uptake BRAIN (6 h): 0.37 % ID/g
uptake EYES (6 h): 15.75 % ID/g
uptake GIT (6 h): 3.08 % ID/g
uptake HEART (6 h): 0.52 % ID/g
uptake KIDNEY (6 h): 1.80 % ID/g
uptake LIVER (6 h): 26.41 % ID/g
uptake LUNGS (6 h): 2.23 % ID/g
uptake MUSCLE (6 h): 0.36 % ID/g
uptake SKIN (6 h): 0.89 % ID/g
uptake SPLEEN (6 h): 4.11 % ID/g
uptake STOMACH (6 h): 1.79 % ID/g
uptake THYROID (6 h): 1.98 % ID/g
uptake TUMOUR (6 h): 5.29 % ID/g
Compound: CCCCN(C)CCCCNC(=O)c1ccc(F)nc1 [[^18F]MEL4, 6-Fluoro-N-[4-(butyl(methyl)amino)butyl]nicotinamide]

uptake BLOOD (15 min): 2.55 % ID/g
uptake BONE (15 min): 4.03 % ID/g
uptake BRAIN (15 min): 3.47 % ID/g
uptake EYES (15 min): 17.25 % ID/g
uptake GIT (15 min): 7.03 % ID/g
uptake HEART (15 min): 3.51 % ID/g
uptake KIDNEY (15 min): 19.45 % ID/g
uptake LIVER (15 min): 12.65 % ID/g
uptake LUNGS (15 min): 5.67 % ID/g
uptake MUSCLE (15 min): 4.16 % ID/g
uptake SKIN (15 min): 2.40 % ID/g
uptake SPLEEN (15 min): 10.27 % ID/g
uptake STOMACH (15 min): 13.20 % ID/g
uptake THYROID (15 min): 4.81 % ID/g
uptake TUMOUR (15 min): 6.99 % ID/g
uptake BLOOD (1 h): 0.77 % ID/g
uptake BONE (1 h): 1.52 % ID/g
uptake BRAIN (1 h): 1.37 % ID/g
uptake EYES (1 h): 23.66 % ID/g
uptake GIT (1 h): 2.85 % ID/g
uptake HEART (1 h): 1.14 % ID/g
uptake KIDNEY (1 h): 4.75 % ID/g
uptake LIVER (1 h): 3.19 % ID/g
uptake LUNGS (1 h): 1.81 % ID/g
uptake MUSCLE (1 h): 1.27 % ID/g
uptake SKIN (1 h): 0.88 % ID/g
uptake SPLEEN (1 h): 3.19 % ID/g
uptake STOMACH (1 h): 5.25 % ID/g
uptake THYROID (1 h): 2.22 % ID/g
uptake TUMOUR (1 h): 12.22 % ID/g
uptake BLOOD (3 h): 0.12 % ID/g
uptake BONE (3 h): 0.77 % ID/g
uptake BRAIN (3 h): 0.19 % ID/g
uptake EYES (3 h): 18.81 % ID/g
uptake GIT (3 h): 0.72 % ID/g
uptake HEART (3 h): 0.33 % ID/g
uptake KIDNEY (3 h): 0.45 % ID/g
uptake LIVER (3 h): 0.42 % ID/g
uptake LUNGS (3 h): 0.37 % ID/g
uptake MUSCLE (3 h): 0.28 % ID/g
uptake SKIN (3 h): 0.15 % ID/g
uptake SPLEEN (3 h): 2.32 % ID/g
uptake STOMACH (3 h): 0.82 % ID/g
uptake THYROID (3 h): 1.48 % ID/g
uptake TUMOUR (3 h): 8.80 % ID/g
uptake BLOOD (6 h): 0.06 % ID/g
uptake BONE (6 h): 0.43 % ID/g
uptake BRAIN (6 h): 0.07 % ID/g
uptake EYES (6 h): 16.49 % ID/g
uptake GIT (6 h): 0.23 % ID/g
uptake HEART (6 h): 0.17 % ID/g
uptake KIDNEY (6 h): 0.25 % ID/g
uptake LIVER (6 h): 0.60 % ID/g
uptake LUNGS (6 h): 0.14 % ID/g
uptake MUSCLE (6 h): 0.17 % ID/g
uptake SKIN (6 h): 0.29 % ID/g
uptake SPLEEN (6 h): 1.31 % ID/g
uptake STOMACH (6 h): 0.30 % ID/g
uptake THYROID (6 h): 1.02 % ID/g
uptake TUMOUR (6 h): 7.20 % ID/g
Compound: CCN(CC)CCNC(=O)c1ccnc(F)c1 [[^18F]MEL8, 6-Fluoro-N-[2-(diethylamino)ethyl]isonicotinamide]
